Our source for the EC50 and IC50 values is US20160016916A1, “Exo Olefin-Containing Nuclear Transport Modulators and Uses Thereof” (KARYOPHARM THERAPEUTICS INC., priority 2013, published 2016).

In assay [1] the target is T1, CRM1 (Homo sapiens, UniProt O14980).
T1 construct: HeLa cells expressing GFP that was N-terminally fused to a nuclear localization and C-terminally fused to the nuclear export signal of PKI; endogenous in cells; host or cells: HeLa cells expressing an NLS-GFP-NES(PKI) reporter
Kind of assay: CRM1-mediated nuclear export assay (GFP nuclear localization in HeLa cells). The note with it: HeLa cells expressing NLS-GFP-NES(PKI), 3 hours, concentration at which approximately 50% of the cells showed nuclear GFP. Format: cell-based. As to the method: HeLa cells expressing GFP that was N-terminally fused to a nuclear localization and C-terminally fused to the nuclear export signal of PKI were treated with different concentrations of test compounds for 3 hours and then scored for nuclear localization of GFP.
HeLa cells were cultured in Dulbecco's modified Eagle's medium (DMEM) supplemented with 10% (vol/vol) heat-inactivated fetal calf serum, 2 mM L-glutamine 0.1% sodium bicarbonate, and 20 μg/ml gentamicin. The cells were plated in 96-well plates at 0.02×10^6 cells/well and incubated overnight. The next day, compound was added to the cells and incubated for another 3 hours. After 3 hours, GFP subcellular localization was monitored using a Leica DMI6000 microscope.

Assay [2] has as its system MM1.S cells. Kind of assay: CellTiter 96 AQueous One Solution cell proliferation assay (MTS). Format: cell-based. The note with it: Homo sapiens, 72 h of treatment, MTS absorbance at 490 nm. An excerpt:
The CellTiter 96® AQueous One Solution cell proliferation assay (Promega) was used on MM1.S cells to study the cytotoxic and cytostatic properties of the compounds. The assay is based on the cleavage of the tetrazolium salt, MTS, in the presence of an electron-coupling reagent PES (phenazine ethosulfate). The MTS tetrazolium compound is bioreduced by cells into a colored formazan product that is soluble in tissue culture medium. This conversion is presumably accomplished by NADPH or NADH produced by dehydrogenase enzymes in metabolically active cells. Assays are performed by adding a small amount of the CellTiter 96® AQueous One solution reagent directly to culture wells, incubating for 1-4 hours and then recording the absorbance at 490 nm with a 96-well plate reader.
The cells were seeded at 5×10^3 to 1.5×10^4 cells (depending on cell type) in each well of 96-well plate in 100 μL of fresh culture medium and adherent cells were allowed to attach for overnight. The stock solutions of the compounds were diluted in cell culture medium to obtain eight concentrations of each drug, ranging from 1 nM to 30 μM and DMSO at less than 1% v/v was used as a negative control. After 72 h of treatment, 20 μL of CellTiter 96® AQueous reagent was added into each well of the 96-well assay plates and the plate was incubate at 37° C. for 1-4 hours in a humidified, 5% CO2 atmosphere. Then the absorbance of each well was recorded at 490 nm by using a 96-well plate reader. In most cases, the assay was performed in triplicates and the results were presented as half maximal inhibitory concentration (IC50). Optical density versus compound concentration was plotted and analyzed using non linear regression equations (Excel Fit) and the IC50 for each compound was calculated.

T1 sequence (O14980 whole entry, the tested form may be a part): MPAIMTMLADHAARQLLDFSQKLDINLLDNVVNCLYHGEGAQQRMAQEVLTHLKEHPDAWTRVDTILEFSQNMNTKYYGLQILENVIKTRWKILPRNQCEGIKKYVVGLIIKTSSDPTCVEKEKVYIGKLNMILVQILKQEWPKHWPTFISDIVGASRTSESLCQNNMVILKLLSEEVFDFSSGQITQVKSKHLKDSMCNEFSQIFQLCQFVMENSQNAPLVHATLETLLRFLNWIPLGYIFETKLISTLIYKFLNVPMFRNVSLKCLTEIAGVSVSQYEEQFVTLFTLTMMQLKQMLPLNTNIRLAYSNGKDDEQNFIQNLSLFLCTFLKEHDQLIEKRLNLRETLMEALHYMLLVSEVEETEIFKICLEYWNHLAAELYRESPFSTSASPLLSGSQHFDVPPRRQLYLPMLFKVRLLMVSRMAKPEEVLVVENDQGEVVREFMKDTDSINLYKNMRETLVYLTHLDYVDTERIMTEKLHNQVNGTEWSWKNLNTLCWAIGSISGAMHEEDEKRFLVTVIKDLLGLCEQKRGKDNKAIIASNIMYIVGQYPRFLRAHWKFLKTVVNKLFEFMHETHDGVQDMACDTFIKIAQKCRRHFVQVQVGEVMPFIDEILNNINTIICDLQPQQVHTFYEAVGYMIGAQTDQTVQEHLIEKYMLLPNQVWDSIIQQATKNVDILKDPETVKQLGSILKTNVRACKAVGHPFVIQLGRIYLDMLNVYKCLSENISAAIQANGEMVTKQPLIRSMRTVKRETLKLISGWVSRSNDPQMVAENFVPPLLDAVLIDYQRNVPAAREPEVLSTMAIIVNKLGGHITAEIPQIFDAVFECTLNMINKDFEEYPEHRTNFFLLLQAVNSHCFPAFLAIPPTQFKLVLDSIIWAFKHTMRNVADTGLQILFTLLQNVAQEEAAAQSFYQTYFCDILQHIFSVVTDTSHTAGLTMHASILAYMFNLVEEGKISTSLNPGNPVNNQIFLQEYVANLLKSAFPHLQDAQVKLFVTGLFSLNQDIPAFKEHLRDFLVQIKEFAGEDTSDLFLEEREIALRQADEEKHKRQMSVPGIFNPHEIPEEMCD

One may read the EC50 as the concentration needed to bring the measured effect to its halfway point. In assay [1], `C=C(Cn1nnc(-c2ccccc2)n1)C(=O)N1CCCCC1` [Compound 10, 2-((5-phenyl-2H-tetrazol-2-yl)methyl)-1-(piperidin-1-yl)prop-2-en-1-one] showed an EC50 of more than 30000 nM. A word on the IC50: it is the concentration that inhibits the measured activity by half. Lower therefore signals greater potency. In the case of `C=C(Cn1cnc(-c2cc(C(F)(F)F)cc(C(F)(F)F)c2)n1)C(=O)NNc1ccccn1` [Compound 6, 2-((3-(3,5-bis(trifluoromethyl)phenyl)-1H-1,2,4-triazol-1-yl)methyl)-N′-(pyridin-2-yl)acrylohydrazide], the IC50 in assay [2] is 70 nM. Besides, the response in assay [1] was half-maximal at 900 nM (EC50). `C=C(Cn1cnc(-c2cc(C(F)(F)F)cc(C(F)(F)F)c2)n1)C(=O)NNc1cnccn1` [Compound 7, 2-((3-(3,5-bis(trifluoromethyl)phenyl)-1H-1,2,4-triazol-1-yl)methyl)-N′-(pyrazin-2-yl)acrylohydrazide] returned an IC50 in assay [2] of 10 nM. In turn, `C=C(Cn1cnc(-c2cc(OC)cc(C(F)(F)F)c2)n1)C(=O)OCC` [Compound 4, ethyl 2-((3-(3-methoxy-5-(trifluoromethyl)phenyl)-1H-1,2,4-triazol-1-yl)methyl)acrylate] showed a concentration giving a half-maximal response (EC50) in assay [1] of 3800 nM. `C=C(Cn1cnc(-c2cc(C(F)(F)F)cc(C(F)(F)F)c2)n1)C(=O)N1CC(F)(F)C1` [Compound 5, 2-((3-(3,5-bis(trifluoromethyl)phenyl)-1H-1,2,4-triazol-1-yl)methyl)-1-(3,3-difluoroazetidin-1-yl)prop-2-en-1-one] returned an IC50 in assay [2] of 90 nM. Besides, in assay [1], the response was half-maximal at 1800 nM (EC50).

`C=C(Cn1nnc(-c2cc(C(F)(F)F)cc(C(F)(F)F)c2)n1)C(=O)OC(C)C` [Compound 11, isopropyl 2-((5-(3,5-bis(trifluoromethyl)phenyl)-2H-tetrazol-2-yl)methyl)acrylate]: the EC50 in assay [1] was found to be 15000 nM. The molecule `C=C(Cn1cnc(-c2cc(C(F)(F)F)cc(C(F)(F)F)c2)n1)c1nnco1` [Compound 8, 2-(3-(3-(3,5-bis(trifluoromethyl)phenyl)-1H-1,2,4-triazol-1-yl)prop-1-en-2-yl)-1,3,4-oxadiazole] returned an IC50 in assay [2] of 30 nM. Further, the EC50 in assay [1] was 230 nM.

Molecule `C=C(Cn1cnc(-c2cc(C(F)(F)F)cc(C(F)(F)F)c2)n1)C(=O)OC(C)C` [Compound 1, isopropyl 2-((3-(3,5-bis(trifluoromethyl)phenyl)-1H-1,2,4-triazol-1-yl)methyl)acrylate] displayed an IC50 in assay [2] of 100 nM. The EC50 in assay [1] worked out at 900 nM.

In the case of `C=C(Cn1cnc(-c2cc(OC)cc(C(F)(F)F)c2)n1)C(=O)OC(C)C` [Compound 3, isopropyl 2-((3-(3-methoxy-5-(trifluoromethyl)phenyl)-1H-1,2,4-triazol-1-yl)methyl)acrylate], it took 50 nM to reach half-maximal inhibition in assay [2] (IC50). The molecule further showed an EC50 in assay [1] of 1800 nM. In assay [1], `C=C(Cn1nnc(-c2ccccc2)n1)c1nnco1` [Compound 9, 2-(3-(5-phenyl-2H-tetrazol-2-yl)prop-1-en-2-yl)-1,3,4-oxadiazole] gave an EC50 of 15000 nM.
